From paper PMC9127750, “Structure-based design of CDC42 effector interaction inhibitors for the treatment of cancer” (Cell reports, 2022)
Where two headings read alike, the source gives them in different places.

Tests used:
Test in all cases: cells
[1] = tested on: U87MG; details: Homo sapiens, U-87 MG, read-out: IC50 ARN22089
How it was run: (§1)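 Overnight compound treatment at 37°C preceded CellTiterGlo quantification of viable cells, each line kept in its own medium.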

[2] = tested on: NCI-H1581; details: Homo sapiens, NCI-H1581, read-out: IC50 ARN22089
How it was run: as §1

[3] = tested on: A549; details: Homo sapiens, A549, read-out: IC50 ARN22089
How it was run: as §1

[4] = tested on: WM3248, SKMel3, A375, SW480, and SKM28; details: WM3248, SKMel3, A375, and SW480
How it was run: as §1

[5] = tested on: NCI-H1048; details: Homo sapiens, NCI-H1048, read-out: IC50 ARN22089
How it was run: as §1

[6] = tested on: SNU-1; details: Homo sapiens, SNU1, read-out: IC50 ARN22089
How it was run: as §1

[7] = tested on: HL-60; details: Homo sapiens, HL-60, read-out: IC50 ARN22089
How it was run: as §1

[8] = tested on: SW948; details: Homo sapiens, SW948, read-out: IC50 ARN22089
How it was run: as §1

[9] = tested on: NCI-H2110; details: NCI-H2110, read-out: IC50 ARN22089
How it was run: as §1

[10] = tested on: COV434; details: COV434, read-out: IC50 ARN22089
How it was run: as §1

[11] = tested on: DU-145; details: Homo sapiens, DU-145, read-out: IC50 ARN22089
How it was run: as §1

[12] = tested on: NCI-H1437; details: Homo sapiens, NCI-H1437, read-out: IC50 ARN22089
How it was run: as §1

[13] = tested on: Hutu 80; details: Homo sapiens, HuTu80, read-out: IC50 ARN22089
How it was run: as §1

[14] = tested on: A375; details: Homo sapiens
How it was run: as §1

[15] = tested on: A498; details: Homo sapiens, A498, read-out: IC50 ARN22089
How it was run: as §1

[16] = tested on: Ishikawa; details: Homo sapiens, read-out: IC50 ARN22089
How it was run: as §1

[17] = tested on: RPMI 8226; details: Homo sapiens, RPMI-8226, read-out: IC50 ARN22089
How it was run: as §1

Q: For `CN(C)c1cccc(Nc2cc(-c3ccccc3)nc(C3CCNCC3)n2)c1` [ARN22089, N1,N1-dimethyl-N3-(6-phenyl-2-(piperidin-4-yl)pyrimidin-4-yl)benzene-1,3-diamine], which IC50 [1] is on record?
A: Its IC50 is 6.1 µM.

Q: And the IC50 [2]?
A: Its IC50 is 24 µM.

Q: What about the IC50 [3] of the same compound?
A: The IC50 was 11 µM.

Q: And the “IC50 activity against the more sensitive cell lines” value [4]?
A: Its value is “single-digit micromolar”.

Q: What about the IC50 [5] of the same compound?
A: The IC50 was 22 µM.

Q: What about the IC50 [6] of the same compound?
A: Its IC50 is 7.8 µM.

Q: What about the IC50 [7] of the same compound?
A: The IC50 was 8.1 µM.

Q: What about the IC50 [8] of the same compound?
A: Its IC50 is 8.3 µM.

Q: And the IC50 [9]?
A: Its IC50 is 21 µM.

Q: And the IC50 [10]?
A: Its IC50 is 5.5 µM.

Q: What about the IC50 [11] of the same compound?
A: Its IC50 is 11 µM.

Q: And the IC50 [12]?
A: Its IC50 is 16 µM.

Q: And the IC50 [13]?
A: The IC50 was 12 µM.

Q: What about the IC50 ([14]; A-375, read-out: IC50 A375) of the same compound?
A: Its IC50 is 4.92 µM.

Q: And the IC50 ([14]; A-375, read-out: IC50 ARN22089)?
A: Its IC50 is 4.5 µM.

Q: And the IC50 [15]?
A: The IC50 was 10 µM.

Q: And the IC50 [16]?
A: The IC50 was 8.5 µM.

Q: And the IC50 [17]?
A: Its IC50 is 5.8 µM.
